One assay has as its target T1, acetylcholine muscarinic M1 receptor (Homo sapiens, UniProt P11229).
T1 construct: expressed in transfected cells; host or cells: CHOnfat cells (CHO cells with an NFAT reporter) expressing hM1, kept under Geneticin selection
T1 sequence (P11229 1-460): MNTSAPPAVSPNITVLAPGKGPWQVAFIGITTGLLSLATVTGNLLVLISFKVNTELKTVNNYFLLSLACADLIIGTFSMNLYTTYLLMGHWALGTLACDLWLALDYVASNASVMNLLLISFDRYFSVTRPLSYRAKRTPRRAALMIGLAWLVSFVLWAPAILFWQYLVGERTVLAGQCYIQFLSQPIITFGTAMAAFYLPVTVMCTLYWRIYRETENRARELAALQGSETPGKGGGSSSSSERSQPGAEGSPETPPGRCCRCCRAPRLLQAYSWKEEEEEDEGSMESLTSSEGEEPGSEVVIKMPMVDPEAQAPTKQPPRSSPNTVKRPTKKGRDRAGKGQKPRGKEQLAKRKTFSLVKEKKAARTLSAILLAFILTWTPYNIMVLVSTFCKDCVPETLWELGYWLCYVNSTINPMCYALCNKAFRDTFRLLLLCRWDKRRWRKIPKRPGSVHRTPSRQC
Description: muscarinic FLIPR assay: intracellular calcium in CHOnfat/hM1 cells, potentiation of EC20 acetylcholine. The class given is cell-based. As to conditions: IP Value (nM), Table 3; inflection point calculated from the FLIPR values; EC20 acetylcholine (3 nM final). The method in brief:
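CHOnfat cells stably expressing human M1, Fluo-4AM-loaded, in HBSS with 20 mM HEPES, 2.5 mM probenecid, 1% BSA. Compounds preincubated 4 min (printed "4 mM") before an EC20 acetylcholine challenge (3 nM final). FLIPR intracellular Ca²⁺ signal compared with 3 nM acetylcholine alone to detect potentiation.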
As for `CN(C)C(=O)Oc1cccc(N2Cc3c(cc(CN4CCC(F)(F)CC4)c4cccnc34)C2=O)c1` [Example 10, 3-{5-[(4,4-Difluoropiperidin-1-yl)methyl]-7-oxo-7,9-dihydro-8H-pyrrolo[3,4-h]quinolin-8-yl}phenyl dimethylcarbamate], the EC50 is 2260 nM.

Still in this assay, the particulars now being: M1 Pot., Table 2; CHOnfat/hM1 cells, FLIPR, EC20 acetylcholine (3 nM final).
With `CC1CCN(Cc2cc3c(c4ncccc24)CN([C@H]2CCCC[C@@H]2O)C3=O)CC1` [Example 87, 8-[(1S,2S)-2-hydroxycyclohexyl]-5-[(4-methylpiperidin-1-yl)methyl]-8,9-dihydro-1H-pyrrolo[3,4-h]quinolin-7-one], the EC50 turned out to be 200 nM.

The same assay, now with this note: Table 1; CHOnfat/hM1 cells, FLIPR, EC20 acetylcholine (3 nM final); read-out: M1 Pot.
For the compound `O=C1c2cc(CN3CCCC3C(F)(F)F)c3ccccc3c2CN1C1CCCCC1O` (stereo not shown) [Example 30, 2-(2-hydroxycyclohexyl)-5-{[2-(trifluoromethyl)pyrrolidin-1-yl]methyl}-1,2-dihydro-3H-benzo[e]isoindol-3-one], the EC50 stood at 2700 nM.
The same measure, in the same setting: the result for `N#CC1(c2ccccc2F)CCN(Cc2cc3c(c4ccccc24)CN([C@@H]2CCCC[C@@H]2O)C3=O)CC1` [Example 60, 4-(2-fluorophenyl)-1-({2-[(1R,2S)-2-hydroxycyclohexyl]-3-oxo-2,3-dihydro-1H-benzo[e]isoindol-5-yl}methyl)piperidine-4-carbonitrile] reads 44 nM.
Take `O=C1c2cc(CN3CCN(c4ccccn4)CC3)c3ccccc3c2CN1[C@H]1CCCC[C@@H]1O` [Example 74, 2-[(1S,2S)-2-hydroxycyclohexyl]-5-[(4-pyridin-2-ylpiperazin-1-yl)methyl]-1,2-dihydro-3H-benzo[e]isoindol-3-one]: the EC50 was 46 nM.
Still for that read-out and setting: the result for `O=C1c2cc(CN3CCC(c4ccncc4)CC3)c3ccccc3c2CN1C1CCCCC1O` (stereo not shown) [Example 42, 2-(2-hydroxycyclohexyl)-5-[(4-(4-pyridinyl)piperidin-1-yl)methyl]-1,2-dihydro-3H-benzo[e]isoindol-3-one] reads 240 nM; that for `O=C1c2cc(CN3C[C@@H](F)[C@H](F)C3)c3ccccc3c2CN1C1CCCCC1O` (relative stereo) [Example 29, 5-{[trans-3,4-difluoropyrrolidin-1-yl]methyl}-2-(2-hydroxycyclohexyl)-1,2-dihydro-3H-benzo[e]isoindol-3-one], 240 nM.
Still for that read-out and setting: the value for `Cn1cc(N2CCN(Cc3cc4c(c5ccccc35)CN([C@H]3CCCC[C@@H]3O)C4=O)CC2)cn1` [Example 80, 2-[(1S,2S)-2-hydroxycyclohexyl]-5-{[4-(1-methyl-1H-pyrazol-4-yl)piperazin-1-yl]methyl}-1,2-dihydro-3H-benzo[e]isoindol-3-one] was 1620 nM.
Take `N#CC1(F)CCN(Cc2cc3c(c4ccccc24)CN([C@H]2CCCC[C@@H]2O)C3=O)CC1` [Example 19, 4-fluoro-1-({2-[(1S,2S)-2-hydroxycyclohexyl]-3-oxo-2,3-dihydro-1H-benzo[e]isoindol-5-yl}methyl)piperidine-4-carbonitrile]: the EC50 was 37 nM.
As to `O=C1c2cc(CN3CCN(c4ccccc4)CC3)c3ccccc3c2CN1[C@H]1CCCC[C@@H]1O` [Example 72, 2-[(1S,2S)-2-hydroxycyclohexyl]-5-[(4-phenylpiperazin-1-yl)methyl]-1,2-dihydro-3H-benzo[e]isoindol-3-one], the EC50 was 72 nM.
Same read-out and setting: the result for `O=C1c2cc(CN3CCN(c4ccc(F)cc4)CC3)c3ccccc3c2CN1[C@H]1CCCC[C@@H]1O` [Example 67, 5-{[4-(4-fluorophenyl)piperazin-1-yl]methyl}-2-[(1S,2S)-2-hydroxycyclohexyl]-1,2-dihydro-3H-benzo[e]isoindol-3-one] reads 67 nM; that for `COc1ccc(N2CC3CC2CN3Cc2cc3c(c4ccccc24)CN([C@H]2CCCC[C@@H]2O)C3=O)cc1` (stereo partly shown) [Example 71], 315 nM.

The assay is the same for the next values; noted with them: Table 2; CHOnfat/hM1 cells, FLIPR, EC20 acetylcholine (3 nM final); read-out: M1 Pot.
For `CC1c2c(cc(CN3CCN(c4ccc(F)cc4)CC3)c3cccnc23)C(=O)N1C1CCCCC1O` (stereo not shown) [Example 172, 5-{[4-(4-fluorophenyl)piperazin-1-yl]methyl}-8-(2-hydroxycyclohexyl)-9-methyl-8,9-dihydro-7H-pyrrolo[3,4-h]quinolin-7-one], the EC50 came out at 480 nM.
Turning to `C#CC1CCN(Cc2cc3c(c4ncccc24)CN(C2CCCCC2O)C3=O)CC1` (stereo not shown) [Example 124, 5-[(4-ethynylpiperidin-1-yl)methyl]-8-(2-hydroxycyclohexyl)-8,9-dihydro-7H-pyrrolo[3,4-h]quinolin-7-one], the EC50 was found to be 44 nM.
The same measure, in the same setting: the value for `Cc1ccnc(C2(C#N)CCN(Cc3cc4c(c5ncccc35)CN(C3CCCCC3O)C4=O)CC2)c1` (stereo not shown) [Example 148, 1-{[8-(2-hydroxycyclohexyl)-7-oxo-8,9-dihydro-7H-pyrrolo[3,4-h]quinolin-5-yl]methyl}-4-(4-methylpyridin-2-yl)piperidine-4-carbonitrile] was 4.7 nM; that for `CCC1c2c(cc(CN3CCC(F)(F)CC3)c3cccnc23)C(=O)N1[C@@H]1CCCC[C@@H]1O` (stereo partly drawn) [Example 105, 5-[(4,4-difluoropiperidin-1-yl)methyl]-9-ethyl-8-[(1R,2S)-2-hydroxycyclohexyl]-8,9-dihydro-7H-pyrrolo[3,4-h]quinolin-7-one] was 9.9 nM.
As for `O=C1c2cc(CN3CCC(c4ccncc4)CC3)c3cccnc3c2CN1C1CCCCC1O` (stereo not shown) [Example 142, 8-(2-hydroxycyclohexyl)-5-[(4-pyridin-4-ylpiperidin-1-yl)methyl]-8,9-dihydro-7H-pyrrolo[3,4-h]quinolin-7-one], the EC50 turned out to be 51 nM.
On the same count and under the same terms, the value for `CC1c2c(cc(CN3CCC(c4ccncc4)CC3)c3cccnc23)C(=O)N1C1CCCCC1O` (stereo not shown) [Example 143, 8-(2-hydroxycyclohexyl)-9-methyl-5-[(4-pyridin-4-ylpiperidin-1-yl)methyl]-8,9-dihydro-7H-pyrrolo[3,4-h]quinolin-7-one] was 89 nM.
Still for that read-out and setting: the result for `Cn1cc(N2CCN(Cc3cc4c(c5ncccc35)CN([C@H]3CCCC[C@@H]3O)C4=O)CC2)cn1` [Example 157, 8-[(1S,2S)-2-hydroxycyclohexyl]-5-{[4-(1-methyl-1H-pyrazol-4-yl)piperazin-1-yl]methyl}-8,9-dihydro-7H-pyrrolo[3,4-h]quinolin-7-one] reads 42 nM; that for “1-({8-[(1S,2S)-2-hydroxycyclohexyl]-7-oxo-8,9-dihydro-7H-pyrrolo[3,4-h]quinolin-5-yl}methyl)-4-(6-methoxypyridin-2-yl)piperidine-4-carbonitrile [Example 156]”, 57 nM.
With `CC1c2c(cc(CN3CCC(F)(F)CC3)c3cccnc23)C(=O)N1[C@@H]1COCC[C@@H]1O` (stereo partly drawn) [Example 106, 1,5-anhydro-2,4-dideoxy-4-{5-[(4,4-difluoropiperidin-1-yl)methyl]-9-methyl-7-oxo-7,9-dihydro-8H-pyrrolo[3,4-h]quinolin-8-yl}-D-erythro-pentitol], the EC50 stood at 110 nM.
Turning to “1-({8-[(1S,2S)-2-hydroxycyclohexyl]-7-oxo-8,9-dihydro-7H-pyrrolo[3,4-h]quinolin-5-yl}methyl)-4-(6-methoxypyridin-2-yl)piperidine-4-carbonitrile [Example 155]”, the EC50 amounted to 520 nM.
Turning to `CC1(C)CCN(Cc2cc3c(c4ncccc24)CN(C2CCCCC2O)C3=O)CC1` (stereo not shown) [Example 100, 5-[(4,4-dimethylpiperidin-1-yl)methyl]-8-(2-hydroxycyclohexyl)-8,9-dihydro-7H-pyrrolo[3,4-h]quinolin-7-one], the EC50 turned out to be 430 nM.
On to `CC1(O)CCN(Cc2cc3c(c4ncccc24)CN(C2CCCCC2O)C3=O)CC1` (stereo not shown) [Example 101, 8-(2-hydroxycyclohexyl)-5-[(4-hydroxy-4-methylpiperidin-1-yl)methyl]-8,9-dihydro-7H-pyrrolo[3,4-h]quinolin-7-one], for which the EC50 was 930 nM.
On the same count and under the same terms, the result for `O=C1c2cc(CN3CCC4(CC3)COc3ccccc34)c3cccnc3c2CN1C1CCCCC1O` (stereo not shown) [Example 95, 8-(2-hydroxycyclohexyl)-5-(1′H-spiro[1-benzofuran-3,4′-piperidin]-1′-ylmethyl)-8,9-dihydro-7H-pyrrolo[3,4-h]quinolin-7-one] reads 290 nM.

The assay is the same for the next values; noted with them: Table 3; inflection point calculated from the FLIPR values; EC20 acetylcholine (3 nM final); read-out: IP Value.
Regarding `Cc1cccc(C2(C#N)CCN(Cc3cc4c(c5ccccc35)CN([C@H]3CCCC[C@@H]3O)C4=O)CC2)n1` [Example 4, 1-({2-[(1S,2S)-2-Hydroxycyclohexyl]-3-oxo-2,3-dihydro-1H-benzo[e]isoindol-5-yl}methyl)-4-(6-methylpyridin-2-yl)piperidine-4-carbonitrile], the EC50 was 27 nM.
Regarding `COc1cccc(C2(C#N)CCN(Cc3cc4c(c5ccccc35)CN([C@H]3CCCC[C@@H]3O)C4=O)CC2)n1` [Example 6, 1-({2-[(1S,2S)-2-Hydroxycyclohexyl]-3-oxo-2,3-dihydro-1H-benzo[e]isoindol-5-yl}methyl)-4-(6-methoxypyridin-2-yl)piperidine-4-carbonitrile], the EC50 is 65 nM.
On to `O=C1c2cc(CN3CCC(F)(F)CC3)c3cccnc3c2CN1[C@H]1COCC[C@@H]1O` [Example 8, 1,5-Anhydro-2,4-dideoxy-2-{5-[(4,4-difluoropiperidin-1-yl)methyl]-7-oxo-7,9-dihydro-8H-pyrrolo[3,4-h]quinolin-8-yl}-L-threo-pentitol], for which the EC50 is 41 nM.

Values taken from patent US9206200B2, “N-linked lactam M1 receptor positive allosteric mogulators” (Merck Sharp & Dohme Corp., priority 2011, dated 2015).
